Data set [1] can be described thus: Caco-2 permeability assay. The conditions noted are these: human. The data set is classed as in vitro ADME. The method, then:
(§1) Caco-2 cells (ATCC under the license of Abcam Inc., doing business as NaviCyte Scientific, Berkeley, CA) cultured to confluency were trypsinized and seeded onto a filter transwell insert (high-throughput screening Transwell 96-well permeable supports; Corning Inc.) at a density of ~10,000 cells/well in Dulbecco’s modified Eagle’s medium (DMEM). Confluent cells were subcultured at passages 58–62 and grown in a humidified atmosphere of 5% CO2 at 37°C. Following an overnight attachment period (24 h after seeding), the cell medium was replaced every other day with fresh medium in both the apical and basolateral compartments. The cell monolayers were used for transport studies 21 days post-seeding, when monolayer integrity was checked by measuring the transepithelial electrical resistance (TEER). If TEER values were ≥500 Ω/cm^2, the medium was removed and the cells were washed twice with pre-warmed (37°C) Hank’s Balanced Salt Solution (HBSS). Compound stock solutions were made in DMSO and further diluted in HBSS (1% final DMSO concentration). All compounds, including controls (colchicine, E3S), were tested at a final concentration of 5 to 10 µM. For A → B directional transport, the donor working solution was added to the apical compartment (A) and HBSS as receiver working solution to the basolateral compartment (B). For B → A directional transport, the donor working solution was added to B and HBSS as receiver working solution to A. The cells were incubated at 37°C for 120 min with gentle stirring. At the end of the incubation, samples were taken from both donor and receiver compartments and transferred into 384-well plates, and compound concentrations were determined by UPLC-MS/MS analysis as for the plasma stability assay.
(Caco-2 cells form a polarised layer with tight junctions and transporters.)

For data set [2], the system named is Caco-2 cells. Kind of data set: Caco-2 permeability assay. The data set is classed as in vitro ADME. The conditions noted are these: Caco-2, A→B, 37°C. The procedure: as §1
Data set [3] has as its target T1, CYP2C19 (Homo sapiens, UniProt P33261).
T1 construct: host or cells: baculovirus-infected insect cells (microsomes)
Description: Cytochrome inhibition activity assay. Type of data set: biochemical. The conditions noted are these: human recombinant enzyme, 37°C. The method, then: (§2) To screen the inhibition potential of the compounds using recombinant human cytochrome P450 enzymes (CYP1A2, CYP2C9, CYP2C19, and CYP2D6) and probe substrates with fluorescent detection, incubations were conducted in a 200-µL volume in 96-well microtiter plates (Costar #3915; Corning Inc.). Addition of cofactor-buffer mixture (0.2 M KH2PO4 buffer, 1.3 mM NADP, 3.3 mM MgCl2, 3.3 mM glucose-6-phosphate, and 0.4 U/mL glucose-6-phosphate dehydrogenase), previously diluted control Supersomes (insect cell control for Supersomes enzymes, baculovirus-insect cell-expressed; Corning Inc.), standard inhibitors (furafylline, tranylcypromine, sulfaphenazole, and quinidine), and test compounds was carried out by a Zephyr liquid handling station (Caliper Life Sciences, Hopkinton, MA, US). The plate was then pre-incubated at 37°C for 5 min, and the reaction was initiated by the addition of pre-warmed enzyme/substrate mix, which contained buffer (KH2PO4), cDNA-expressed P450 in insect cell microsomes, substrate (3-cyano-7-ethoxycoumarin for CYP1A2 and CYP2C19, 7-methoxy-4-(trifluoromethyl)coumarin for CYP2C9, and 3-[2-(N,N-diethyl-N-methylammonium)ethyl]-7-methoxy-4-methylcoumarin for CYP2D6) to obtain the final assay concentrations in a reaction volume of 200 µL. Reactions were terminated after a specific time for each cytochrome by the addition of stop solution (ACN:0.5 M tris-HCl, 80:20 vol/vol). Fluorescence in each well was measured using a fluorescence plate reader (EnVision 2104 multilabel plate reader; PerkinElmer, Waltham, MA, US), and percentage of inhibition was calculated.

Data set [4] has as its target T2, CYP2C9 (Homo sapiens, UniProt P11712).
T2 construct: host or cells: baculovirus-infected insect cells (microsomes)
Kind of data set: Cytochrome inhibition activity assay. The data set is classed as biochemical. The conditions noted are these: probe 7-methoxy-4-(trifluoromethyl)coumarin, human recombinant enzyme, 37°C. The procedure: as §2

Data set [5] concerns the target T3, CYP1A2 (Homo sapiens, UniProt P05177).
T3 construct: host or cells: baculovirus-infected insect cells (microsomes)
T3 sequence (P05177 1-516): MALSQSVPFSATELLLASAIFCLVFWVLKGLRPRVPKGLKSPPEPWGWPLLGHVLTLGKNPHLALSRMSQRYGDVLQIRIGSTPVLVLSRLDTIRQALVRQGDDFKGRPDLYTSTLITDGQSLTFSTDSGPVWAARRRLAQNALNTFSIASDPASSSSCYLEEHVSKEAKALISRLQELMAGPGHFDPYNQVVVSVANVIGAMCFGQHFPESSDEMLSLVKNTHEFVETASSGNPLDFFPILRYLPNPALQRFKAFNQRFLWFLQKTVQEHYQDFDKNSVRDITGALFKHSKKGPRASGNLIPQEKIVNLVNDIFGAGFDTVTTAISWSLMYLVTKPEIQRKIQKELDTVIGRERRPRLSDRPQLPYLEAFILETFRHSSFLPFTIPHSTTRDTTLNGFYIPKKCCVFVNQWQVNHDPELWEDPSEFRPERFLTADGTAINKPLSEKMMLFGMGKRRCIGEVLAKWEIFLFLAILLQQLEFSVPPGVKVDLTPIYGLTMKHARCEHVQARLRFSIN
Kind of data set: Cytochrome inhibition activity assay. The data set is classed as biochemical. The conditions noted are these: probe 3-cyano-7-ethoxycoumarin, human recombinant enzyme, 37°C. The procedure:
as §2

The target in data set [6] is T4, CYP2D6 (Homo sapiens, UniProt P10635).
T4 construct: host or cells: baculovirus-infected insect cells (microsomes)
Description: Cytochrome inhibition activity assay. The data set is classed as biochemical. The conditions noted are these: human recombinant enzyme, 37°C. The method, then: as §2

A short description of data set [7]: in vitro. The conditions noted are these: human umbilical vein endothelial cells, 48 h. The data set is classed as cell-based. The method, then:
Human umbilical vein endothelial cells were maintained in M-199 supplemented with 10% fetal bovine serum (FBS) and 1% penicillin-streptomycin at 37°C, 5% CO2, and seeded in 96-well plates at a density of 50,000 cells/mL. After allowing cell adherence for 24 h, the medium was removed, and drugs or nanoformulations were added in M-199 supplemented with 1% penicillin-streptomycin. Plates were incubated for 48 h, and then, the medium in each well was replaced by 100 µL of M-199 containing penicillin-streptomycin and 0.00125% resazurin sodium salt (Sigma-Aldrich Corporation). Plates were incubated for 4 h, and resorufin fluorescence emission was measured (λex/em: 535/590 nm) in a Tecan Infinite 200 PRO equipment (Tecan Trading AG).

Data set [8] deals with P. falciparum. More on the design: method as in PMID 36271358. The conditions noted are these: read-out: IC50 in in vitro P. falciparum cultures; cited from earlier work.

SMILES strings stand for the structures. A value given as a limit tells only on which side of the number the result lay.

T1 sequence (P33261 whole entry): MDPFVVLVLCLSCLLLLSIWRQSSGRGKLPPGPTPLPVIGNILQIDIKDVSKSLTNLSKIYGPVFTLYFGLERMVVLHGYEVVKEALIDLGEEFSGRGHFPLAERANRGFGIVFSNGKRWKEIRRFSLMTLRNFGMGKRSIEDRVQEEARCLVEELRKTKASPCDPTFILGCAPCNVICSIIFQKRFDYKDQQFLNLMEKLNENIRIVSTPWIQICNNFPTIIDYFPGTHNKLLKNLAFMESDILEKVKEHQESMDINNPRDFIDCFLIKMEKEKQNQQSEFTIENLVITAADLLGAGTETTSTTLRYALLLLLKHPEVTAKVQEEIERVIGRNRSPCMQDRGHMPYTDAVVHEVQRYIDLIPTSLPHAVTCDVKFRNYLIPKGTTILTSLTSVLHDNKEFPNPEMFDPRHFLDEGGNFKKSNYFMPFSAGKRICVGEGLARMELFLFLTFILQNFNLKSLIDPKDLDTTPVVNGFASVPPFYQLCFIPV
T2 sequence (P11712 whole entry): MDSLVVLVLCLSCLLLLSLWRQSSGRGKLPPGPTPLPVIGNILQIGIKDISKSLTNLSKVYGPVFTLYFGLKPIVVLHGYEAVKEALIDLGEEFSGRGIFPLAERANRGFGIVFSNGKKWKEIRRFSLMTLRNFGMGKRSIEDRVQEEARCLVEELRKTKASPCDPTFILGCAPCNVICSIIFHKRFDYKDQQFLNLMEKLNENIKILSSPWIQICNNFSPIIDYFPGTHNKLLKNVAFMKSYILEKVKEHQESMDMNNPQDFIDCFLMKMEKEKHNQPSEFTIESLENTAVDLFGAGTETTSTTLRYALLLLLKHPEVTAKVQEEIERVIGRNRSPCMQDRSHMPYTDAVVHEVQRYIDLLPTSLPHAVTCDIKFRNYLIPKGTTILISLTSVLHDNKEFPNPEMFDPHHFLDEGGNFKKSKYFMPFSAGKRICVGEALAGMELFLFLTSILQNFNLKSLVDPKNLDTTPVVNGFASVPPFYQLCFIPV
T4 sequence (P10635 whole entry): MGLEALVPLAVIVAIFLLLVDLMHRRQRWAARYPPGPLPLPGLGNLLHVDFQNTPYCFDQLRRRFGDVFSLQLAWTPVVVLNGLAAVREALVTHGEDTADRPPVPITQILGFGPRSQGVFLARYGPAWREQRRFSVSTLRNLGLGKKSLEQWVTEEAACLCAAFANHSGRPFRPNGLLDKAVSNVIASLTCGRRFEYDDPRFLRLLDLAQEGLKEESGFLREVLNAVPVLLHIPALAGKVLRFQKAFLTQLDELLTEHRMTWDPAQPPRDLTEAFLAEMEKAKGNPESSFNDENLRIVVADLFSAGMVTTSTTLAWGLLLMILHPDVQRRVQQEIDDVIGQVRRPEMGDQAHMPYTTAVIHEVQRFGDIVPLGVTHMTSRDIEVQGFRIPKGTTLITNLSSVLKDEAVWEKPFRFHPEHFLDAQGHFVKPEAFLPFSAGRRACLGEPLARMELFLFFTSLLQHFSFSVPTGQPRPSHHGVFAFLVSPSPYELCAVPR

With `CCN(CC)c1ccc(/C=C/c2cc[n+](CCCCCCCCCC[n+]3ccc(/C=C/c4ccc(N(CC)CC)cc4)c(C)c3)cc2C)cc1` [YAT2150], the Papp A→B (usually how fast a substance crosses the layer from the apical side) at 120 min in data set [1] (Caco-2, Caco-2, A→B, 37°C) was greater than 20 ×10⁻⁶ cm/s. In addition, the Papp B→A – broadly, the apparent permeability from the basolateral to the apical side of a cell layer – at 120 min in data set [1] (Caco-2, Caco-2, B→A, 37°C) is roughly 10 ×10⁻⁶ cm/s. In addition, the efflux ratio (as a rule, a quotient of directional permeabilities that is used to spot active efflux) at 120 min in data set [1] (Caco-2, Papp BA/Papp AB) came to 0.48. Also, the “Papp AB” value in data set [2] was found to be 20.76 ± 2.01 ×10⁻⁶ cm/s. Besides, the concentration for half-maximal inhibition (IC50) – broadly, the concentration that gives 50% inhibition – in data set [3] is 1.1 µM; in data set [6] it was 1.7 µM; in data set [8] it was roughly 0.09 µM. Besides, the inhibition at 10 µM in data set [4] and in data set [5] was roughly 50% in each case. In data set [7], the midpoint of cytotoxicity, the CC50, lay at 3.4 ± 0.5 µM.

The values above are taken from publication PMC10916400, “Effect of the aggregated protein dye YAT2150 on Leishmania parasite viability” (Antimicrobial Agents and Chemotherapy, 2024).
